# Data from patent US20250177405A1, “METHODS OF TREATING NEUROLOGICAL AND CARDIOVASCULAR CONDITIONS” (ASTROCYTE PHARMACEUTICALS, INC., priority 2021, published 2025).
# Where two headings read alike, the source gives them in different places.
# Tests used:
# [1] = I-1 plasma and CSF concentrations during bolus/infusion regimen in tMCAO efficacy study; assay type: in vivo, Macaca fascicularis; details: for predicted I-1 [Plasma]: 22 h infusion; for Measured I-1 [CSF] / measured I-1 [Plasma]: 22 h, n = 4
# Protocol: (§1) Macaques received a bolus dose of vehicle (40% PEG400 in 0.9% saline) or I-1 into a saphenous vein 2 h after occlusion (2 h prior to restoration of MCA blood flow), followed immediately by a 22 h intravenous infusion. This dosing regimen was designed to rapidly achieve and maintain pre-determined plasma and cerebrospinal fluid (CSF) steady-state concentrations of I-1 based on its pharmacokinetics previously determined in näive and MCA occluded macaques (Tables A-C below).
# During MRI, vehicle or I-1 were infused into the saphenous vein via a syringe pump (TOP5500E, TOP Corp., Tokyo, Japan). Infusion following MRI was maintained via a portable, programmable IPRECIO® Dual infusion pump (DMP-100; Primetech Corp., Tokyo, Japan) ported into a jugular venous line, both being secured in a jacket. Methods for pharmacokinetic sampling and bioanalytical analysis of plasma and CSF are described below.
# Blood samples (1.0 mL) were withdrawn into heparinized tubes from either the opposite cephalic or the femoral vein at 3, 6, 24, 48, 72 hours and 5 days post-occlusion. Heparinized blood was centrifuged at 4° C. at 1,800×g for 10 min. In the same animals, 0.3-0.5 mL of cerebrospinal fluid (CSF) was withdrawn at 6 and 24 hours post-occlusion. Macaques were sedated with ketamine (10 mg/kg, i.m.), CSF was collected via puncture of the cisterna magna. Plasma and CSF samples were flash frozen in liquid nitrogen and then stored at −70 C until shipment for processing. Samples were shipped on dry ice. Plasma and CSF concentrations of I-1 were determined by LC/MS/MS utilizing standard curves (performed at the Department of Bio Research, Kamakura Techno-Science, Inc. Kanagawa, Japan). Lower limits of quantitation for compound I-1 were 1.0 ng/mL and 0.1 ng/mL for plasma and CSF, respectively.
# [2] = pre-efficacy pharmacokinetic study, intravenous bolus/constant rate infusion in tMCAO cynomolgus monkeys; assay type: in vivo, cynomolgus monkey; details: tMCAO (n = 1); for Kp at 22 h: cynomolgus monkey, CSF/plasma, intravenous, read-out: CSF/Plasma At 22-hour End of Dosing
# Protocol: as §1
# We then proceeded to our key preclinical stroke efficacy model in nonhuman primates. Pre-efficacy pharmacokinetic studies obtained plasma and CSF pharmacokinetic data. The I-1 CSF concentrations were combined with receptor affinity data to estimate receptor occupancy, and the combination of CSF concentrations and associated receptor occupancies were used to set dose regimens for the efficacy study.
# [3] = test system: photothrombosis-induced stroke in mice; assay: mouse photothrombotic stroke model; assay type: in vivo
# Protocol: Photothrombosis-induced Stroke: Photothrombosis is performed as described in Zheng et al 2010 (PloS One 5 (12): e14401). In brief, Rose Bengal is a fluorescent dye that when injected into the vasculature and excited, generates singlet oxygen that damages the endothelial wall and induces a local thrombosis (clot). Using this technique, mice are given a 0.1 mL tail-vein injection of sterilized Rose Bengal (RB, Sigma, U.S.A.) in artificial cerebral spinal fluid (aCSF). The RB concentration is 20 mg/mL. A cortical region is centered in the imaging field and illuminated with a green laser (543 nm, 5 mW) using a 0.8-NA 40× water-immersion objective (Nikon, Tokyo). The clot formation is monitored in real time until the targeted vessel or downstream capillaries are firmly occluded. […]
# Animals and Photothrombosis-induced Stroke: Stroke is performed as described in Zheng et al 2010 (PloS One 5 (12): e14401). […] Depth of anesthesia is monitored and regulated according to vital signs, pinch withdrawal and eye blinks. […] Vital signs including oxygen saturation, respiratory rate, and heart rate are continuously monitored by using the MouseOx system (STARR Life Sciences). […]
# Post photothrombotic infarction evaluation. The size of cerebral infarcts is evaluated using 2,3,5-Triphenyltetrazolium chloride (TTC) staining as described in Zheng et al 2010 (PloS One 5 (12): e14401). […]
# [4] = High dose group, 5.2 mg/kg, 2.8 mg/kg/h, mean ± SEM
# [5] = Low dose group, 0.47 mg/kg, 0.25 mg/kg/h, mean ± SEM
# [6] = Mid dose group, 1.7 mg/kg, 0.9 mg/kg/h, mean ± SEM
# [7] = bolus 0.11 mg/kg / infusion 0.0582 mg/kg/hr
# [8] = bolus 1.7 mg/kg / infusion 0.9 mg/kg/hr
# [9] = bolus 5.2 mg/kg / infusion 2.76 mg/kg/hr
smiles,measurement,setting,value
CSc1nc(N)c2ncn([C@H]3C(O)C(O)[C@]4(CO)C[C@H]34)c2n1 (stereo in doubt) [Compound I-1],plasma I-1 after end of infusion,[1]; 24 h following termination of Mid and High dose infusions,Measurable concentrations
same,predicted I-1 [Plasma],"[1]; High dose group, 5.2 mg/kg bolus, 2.8 mg/kg/h",1660 ng/mL
same,Measured I-1 [CSF],[1]; [4],108 ± 35 ng/mL
same,measured I-1 [Plasma],[1]; [4],1127 ± 246 ng/mL
same,predicted I-1 [Plasma],"[1]; Low dose group, 0.47 mg/kg bolus, 0.25 mg/kg/h",150 ng/mL
same,Measured I-1 [CSF],[1]; [5],8.8 ± 2.6 ng/mL
same,measured I-1 [Plasma],[1]; [5],186 ± 24 ng/mL
same,predicted I-1 [Plasma],"[1]; Mid dose group, 1.7 mg/kg bolus, 0.9 mg/kg/h",540 ng/mL
same,Measured I-1 [CSF],[1]; [6],16.8 ± 5.7 ng/mL
same,measured I-1 [Plasma],[1]; [6],483 ± 23 ng/mL
same,predicted I-1 [Plasma],"[1]; Very Low dose group, 0.11 mg/kg bolus, 0.06 mg/kg/h",35 ng/mL
same,measured I-1 [Plasma],"[1]; Very Low dose group, 0.11 mg/kg, 0.06 mg/kg/h, mean ± SEM of average over 22-hour infusion",32 ± 11 ng/mL
same,Measured I-1 [CSF],"[1]; Very Low dose group, 0.11 mg/kg, 0.06 mg/kg/h, mean ± SEM",2.1 ± 0.4 ng/mL
same,average plasma and CSF concentrations relative to targets,"[1]; combined bolus/infusion regimen, all dose levels",≤ 2 fold
same,plasma/CSF ratio,"[1]; correlation of I-1 plasma and CSF concentrations, FIG. 5C",approximately 10
same,Kp at 22 h,[2]; [7],0.094
same,Kp at 22 h,[2]; [8],0.084
same,Kp at 22 h,[2]; [9],0.065
same,Actual Time-Averaged Steady-State [Plasma],[2]; [7],25 ng/mL
same,Predicted Steady-State [Plasma],[2]; [7],35 ng/mL
same,Actual Time-Averaged Steady-State [Plasma],[2]; [8],363 ng/mL
same,Predicted Steady-State [Plasma],[2]; [8],540 ng/mL
same,Actual Time-Averaged Steady-State [Plasma],[2]; [9],1812 ng/mL
same,Predicted Steady-State [Plasma],[2]; [9],1660 ng/mL
same,efficacy in presence of the A3 antagonist MRS1523,[3]; mouse photothrombotic stroke and TBI models,blocked
same,efficacy in mouse photothrombotic stroke model,"[3]; mouse, in vivo",significant efficacy
